Measured values reported in patent US11072632B2, “Inhibitors of 17β-HSD1, 17β-HSD3 and 17β-HSD10” (UNIVERSITÉ LAVAL, priority 2011, dated 2021).
“Also recorded” adds a separate entry of the source.

How the values were obtained:
17β-HSD2 = target: T1, 17β-HSD2 (Homo sapiens, UniProt P37059); type: cell-based; conditions: 5 nM to 20 μM
T1 construct: expressed in transfected cells
T1 sequence (P37059 1-387): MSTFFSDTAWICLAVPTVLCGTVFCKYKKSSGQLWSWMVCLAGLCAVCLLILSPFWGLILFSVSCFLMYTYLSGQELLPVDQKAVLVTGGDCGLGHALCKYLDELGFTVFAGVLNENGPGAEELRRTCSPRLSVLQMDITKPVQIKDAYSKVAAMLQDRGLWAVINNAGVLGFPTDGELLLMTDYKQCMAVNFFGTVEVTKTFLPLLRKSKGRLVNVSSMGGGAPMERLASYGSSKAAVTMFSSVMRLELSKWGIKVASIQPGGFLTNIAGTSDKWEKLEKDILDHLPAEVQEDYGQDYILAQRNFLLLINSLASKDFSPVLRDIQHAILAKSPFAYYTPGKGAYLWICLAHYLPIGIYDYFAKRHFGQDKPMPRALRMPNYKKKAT
Protocol: Inhibition assays were performed using stable 17β-HSD2 HEK-293 transfected intact cells with 5000 cells per well using 24 well plates (Poirier et al. Mol. Cell. Endocrinol., 2001, 171, 119-128). The cells were incubated for 1 h at 37° C. in 1 mL of MEM medium steroid free with 60 nM C^14 estradiol.

[1] = test system: ovariectomized (OVX) BALB/c mice; experiment: In vivo estrogenicity assay in OVX mice (uterus, vagina weight); set-up: species or system mouse; conditions: 7 days; for weight of the uterus: OVX mice, s.c.
Protocol: Female ovariectomized (OVX) BALB/c mice weighing approximately 20 g were obtained from Charles-River, Inc. (St-Constant, Qc., Canada). The animals were housed 5 per cage. Groups of 5 mice were treated with E1 (0.02 μg in 8% EtOH/92% PG) or 17β-HSD1 inhibitor at 10, 50 and 250 μg (0.1 mL s.c.) daily for 7 days. Animals were killed 24 h after administration of the last dose of compound and uteri and vagina were removed, excised of fat and weighed. Total body weights of mice were also recorded.

## C[C@]12CC[C@@H]3c4ccc(CCBr)cc4CC[C@H]3[C@@H]1C[C@H](Cc1cccc(C(N)=O)c1)[C@@H]2O [Compound V, 3-{[(16β,17β)-3-(2-bromoethyl)-17-hydroxyestra-1(10),2,4-trien-16-yl]methyl}benzamide]
17β-HSD2
  inhibition of 17β-HSD2 (conversion of E2 to E1): no inhibition; also recorded: did not show any inhibition
[1]; 10, 50 and 250 μg/mouse/day
  estrogenicity in vivo: non-estrogenic in vivo
[1]; 10 μg/mouse/day
  weight of the uterus: 25 mg
[1]; 50 μg/mouse/day
  weight of the uterus: 24 mg
[1]; 250 μg/mouse/day
  weight of the uterus: 23 mg
